# From paper PMC11382572, “Structural and kinetic insights into the stereospecific oxidation of R-2,3-dihydroxypropanesulfonate by DHPS-3-dehydrogenase from Cupriavidus pinatubonensis” (Chemical Science, 2024)
# Target: T1, DHPS-3-dehydrogenase (CpHpsN) (Cupriavidus pinatubonensis, UniProt Q46N53)
# T1 construct: gene hpsN
# Test: X-ray crystal structure, […] Å, co-crystallization; enzyme inhibition assay
# Type: biochemical
# T1 sequence (Q46N53 whole entry): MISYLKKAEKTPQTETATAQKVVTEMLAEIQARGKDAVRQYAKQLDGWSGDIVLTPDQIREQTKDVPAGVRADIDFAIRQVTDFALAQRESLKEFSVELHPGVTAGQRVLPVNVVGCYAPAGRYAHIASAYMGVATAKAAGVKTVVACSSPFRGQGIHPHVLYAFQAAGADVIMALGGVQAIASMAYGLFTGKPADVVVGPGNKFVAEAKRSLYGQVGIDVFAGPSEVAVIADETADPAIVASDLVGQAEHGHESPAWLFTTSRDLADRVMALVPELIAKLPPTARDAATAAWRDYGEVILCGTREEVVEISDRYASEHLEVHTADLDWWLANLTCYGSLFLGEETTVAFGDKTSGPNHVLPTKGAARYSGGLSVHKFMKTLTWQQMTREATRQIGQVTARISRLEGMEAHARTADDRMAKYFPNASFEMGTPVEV
smiles,measurement,value
N[C@@H](CS(=O)(=O)O)C(=O)O [L-cysteate],IC50,2400 µM
